Values quoted from earlier work as cited in patent US7179486B1, “Process for preparing sustained release tablets” (Nostrum Pharmaceuticals, Inc., priority 1997, dated 2007).

dosage release within a one hour period causing a flushing response in most subjects: more than 75 mg
SMILES: O=C(O)c1cccnc1 [niacin, Niacin]
